In DBAASP:
Converted amounts (≈) assume the structure as drawn. “And” between values parts separate entries of the source, which are not always exact repeats. Equal values may be shown once. Values belong to the molecule of their own block, whether it stands above or below them.

Legend:
Experiment in all cases: ≥ marks a high value that may be exact or a test limit, other limits are often not marked, values filed in µg/mL are converted to µM
[1] = system: Staphylococcus aureus
[2] = system: Escherichia coli
[3] = system: Bifidobacterium longum subsp. infantis
[4] = system: Escherichia coli DH5alpha
[5] = system: Zymomonas mobilis ATCC 10988
[6] = system: Bacillus subtilis DELTA
[7] = system: Candida parapsilosis
[8] = system: Pseudomonas aeruginosa PAO1
[9] = system: Bacillus megaterium Bm11
[10] = system: Salmonella enterica subsp. enterica serovar Typhimurium ATCC 14028
[11] = system: Staphylococcus aureus ATCC 25923
[12] = system: Cryptococcus neoformans
[13] = system: Escherichia coli ATCC 25922
[14] = system: Serratia marcescens
[15] = system: Escherichia coli O18:K1:H7 Bort
[16] = system: Serratia marcescens ATCC 8100
[17] = system: Staphylococcus epidermidis ATCC 12228
[18] = system: Escherichia coli ML-35
[19] = system: Candida albicans
[20] = system: Streptococcus agalactiae
[21] = system: Enterococcus faecium
[22] = system: Bacillus subtilis ATCC 6051
[23] = system: Escherichia coli NEB5alpha
[24] = system: Candida albicans ATCC 10231
[25] = system: Aureobasidium pullulans
[26] = system: Pseudomonas aeruginosa ATCC 27853
[27] = system: Staphylococcus aureus ATCC 9144
[28] = system: Bacillus megaterium
[29] = system: Corynebacterium glutamicum ATCC 13032
[30] = system: Micrococcus luteus
[31] = system: Bacillus subtilis ATCC 23857
[32] = system: Salmonella typhimurium C587
[33] = system: Enterococcus faecalis C625
[34] = system: Pseudomonas aeruginosa H187
[35] = system: Pseudomonas aeruginosa H188
[36] = system: Staphylococcus epidermidis C621
[37] = system: Salmonella typhimurium C610
[38] = system: Bacillus subtilis C971
[39] = system: Escherichia coli DC2
[40] = system: Escherichia coli UB1005
[41] = system: Corynebacterium xerosis C875
[42] = system: Staphylococcus aureus SAP 0017
[43] = system: Pseudomonas aeruginosa MTCC 2295
[44] = system: Staphylococcus epidermidis ATCC 51625
[45] = system: Staphylococcus aureus MTCC 3160
[46] = system: Staphylococcus aureus ATCC BAA-1720
[47] = system: Escherichia coli MTCC 723
[48] = system: Bacillus subtilis MTCC 2763

MIC [4]: ≥ 119 µM
MIC [5]: 23.7 µM (≈ 41 µg/mL)
MIC [6]: ≥ 119 µM
MIC [7]: ≥ 119 µM
MIC [8]: 23.7 µM (≈ 41 µg/mL)
SMILES: CC[C@H](C)[C@H](NC(=O)[C@H](CCCN=C(N)N)NC(=O)[C@H](CCC(N)=O)NC(=O)[C@@H](NC(=O)[C@@H](NC(=O)[C@H](CCCN=C(N)N)NC(=O)[C@H](CCCCN)NC(=O)[C@H](Cc1ccccc1)NC(C)=O)[C@@H](C)CC)C(C)C)C(=O)N[C@@H](CCCCN)C(=O)N[C@@H](CC(=O)O)C(=O)N[C@@H](CC(C)C)C(=O)N[C@@H](CC(C)C)C(=O)N[C@@H](CCCN=C(N)N)C(N)=O [FKRIVQRIKDLLR]

MIC [9]: 2 µM (≈ 6.02 µg/mL)
MIC [10]: 1 µM (≈ 3.01 µg/mL)
MIC [1]: > 64 µM and 32 µM
MIC [11]: 8 µM (≈ 24.1 µg/mL)
MIC [12]: 4 µM (≈ 12 µg/mL)
MIC [13]: 1 µM (≈ 3.01 µg/mL)
MIC [14]: 4 µM (≈ 12 µg/mL)
MIC [15]: 2 µM (≈ 6.02 µg/mL)
MIC [16]: 4 µM (≈ 12 µg/mL)
MIC [17]: 2 µM (≈ 6.02 µg/mL)
MIC [18]: 0.5 µM (≈ 1.5 µg/mL)
MIC [19]: 8 µM (≈ 24.1 µg/mL)
MIC [20]: 1.41 µM (≈ 4.26 µg/mL)
MIC [21]: 22.6 µM (≈ 68.1 µg/mL)
SMILES: CC[C@H](C)[C@H](NC(=O)[C@H](CCCCN)NC(=O)[C@H](CCCN=C(N)N)NC(=O)CNC(=O)[C@H](CC(C)C)NC(=O)[C@H](CO)NC(=O)[C@H](CCCN=C(N)N)NC(=O)[C@H](CC(C)C)NC(=O)CNC(=O)CN)C(=O)N[C@@H](CC(C)C)C(=O)N[C@@H](CCCN=C(N)N)C(=O)N[C@@H](C)C(=O)N[C@@H](Cc1c[nH]c2ccccc12)C(=O)N[C@@H](CCCCN)C(=O)N[C@@H](CCCCN)C(=O)N[C@@H](Cc1ccc(O)cc1)C(=O)NCC(=O)N1CCC[C@H]1C(=O)N[C@@H](CCC(N)=O)C(=O)N[C@@H](C)C(=O)N[C@H](C(=O)N1CCC[C@H]1C(=O)N[C@@H](C)C(=O)N[C@H](C(=O)N[C@@H](CCCN=C(N)N)C(=O)N[C@@H](CCC(N)=O)C(N)=O)[C@@H](C)O)[C@@H](C)O [GGLRSLGRKILRAWKKYGPQATPATRQ]

MIC [22]: ≥ 1000 µM
MIC [23]: ≥ 1000 µM
SMILES: CC[C@H](C)[C@H](NC(=O)[C@H](C)NC(=O)CNC(=O)[C@H](CCCCN)NC(=O)[C@H](CCC(=O)O)NC(=O)[C@H](CCC(=O)O)NC(=O)[C@H](CC(=O)O)NC(=O)[C@H](CCC(=O)O)NC(=O)[C@H](CC(N)=O)NC(=O)[C@H](CCCN=C(N)N)NC(=O)CN)C(=O)N[C@H](C(=O)N[C@@H](CCCCN)C(=O)N[C@H](C(=O)N[C@@H](CCCCN)C(=O)NCC(=O)NCC(=O)N[C@@H](CC(C)C)C(=O)O)C(C)C)C(C)C [GRNEDEEKGAIVKVKGGL]

More lines, now with the values behind:

SMILES: CC(C)C[C@H](NC(=O)[C@H](CC(=O)O)NC(=O)[C@H](CCCCN)NC(=O)[C@@H](N)Cc1ccccc1)C(=O)NCC(=O)N[C@@H](CCC(=O)O)C(=O)N[C@@H](CCC(=O)O)C(=O)N[C@@H](CC(N)=O)C(=O)N[C@@H](Cc1ccccc1)C(=O)N[C@@H](CCCCN)C(=O)O [FKDLGEENFK]
MIC [1]: 2450 µM (≈ 3000 µg/mL)
MIC [2]: 2450 µM (≈ 3000 µg/mL)
MIC [3]: ≥ 2450 µM

SMILES: C[C@H](NC(=O)[C@H](CCCN=C(N)N)NC(=O)[C@H](Cc1c[nH]c2ccccc12)NC(=O)[C@H](Cc1c[nH]c2ccccc12)NC(=O)[C@H](Cc1c[nH]c2ccccc12)NC(=O)[C@@H]1CCCN1C(=O)[C@H](CCCN=C(N)N)NC(=O)[C@H](CCCN=C(N)N)NC(=O)CN)C(=O)N[C@@H](CCCN=C(N)N)C(N)=O [GRRPWWWRAR]
MIC [24]: 21.9 µM (≈ 31.3 µg/mL)
MIC [25]: 21.9 µM (≈ 31.3 µg/mL)
MIC [26]: 21.9 µM (≈ 31.3 µg/mL)
MIC [13]: 5.47 µM (≈ 7.79 µg/mL)
MIC [27]: 5.47 µM (≈ 7.79 µg/mL)
MIC [28]: 0.701 µM (≈ 0.999 µg/mL)
MIC [29]: 1.4 µM (≈ 2 µg/mL)
MIC [30]: 2.73 µM (≈ 3.9 µg/mL)
MIC [31]: 2.73 µM (≈ 3.9 µg/mL)

SMILES: CC[C@H](C)[C@H](NC(=O)[C@H](C)NC(=O)[C@H](CCCCN)NC(=O)[C@H](CC(C)C)NC(=O)[C@H](C)NC(=O)[C@@H](NC(=O)[C@H](Cc1cnc[nH]1)NC(=O)[C@H](CC(C)C)NC(=O)[C@@H](NC(=O)[C@@H](NC(=O)[C@H](CCCCN)NC(=O)[C@@H](NC(=O)[C@H](C)NC(=O)CNC(=O)[C@H](CCCCN)NC(=O)[C@H](Cc1ccccc1)NC(=O)[C@@H](NC(=O)[C@H](CCCCN)NC(=O)[C@H](CC(C)C)NC(=O)[C@H](Cc1ccccc1)NC(=O)[C@H](CO)NC(=O)[C@H](CCCCN)NC(=O)[C@H](Cc1c[nH]c2ccccc12)NC(=O)[C@H](CCCCN)NC(C)=O)[C@@H](C)O)C(C)C)[C@@H](C)O)C(C)C)[C@@H](C)O)C(=O)N[C@@H](CO)C(=O)N[C@@H](CO)C(N)=O [KWKSFLKTFKGAVKTVLHTALKAISS]
MIC [32]: 4.39 µM (≈ 12.9 µg/mL)
MIC [33]: 4.39 µM (≈ 12.9 µg/mL)
MIC [34]: 1.38 µM (≈ 4.06 µg/mL)
MIC [35]: 3.49 µM (≈ 10.2 µg/mL)
MIC [11]: 2.77 µM (≈ 8.11 µg/mL)
MIC [36]: 1.38 µM (≈ 4.06 µg/mL)
MIC [37]: 1.11 µM (≈ 3.25 µg/mL)
MIC [38]: 0.692 µM (≈ 2.03 µg/mL)
MIC [39]: 0.865 µM (≈ 2.54 µg/mL)
MIC [40]: 1.73 µM (≈ 5.07 µg/mL)
MIC [41]: 0.692 µM (≈ 2.03 µg/mL)
MIC [42]: 1.73 µM (≈ 5.07 µg/mL)

SMILES: NC(=O)[C@H](CCCN=C(N)N)NC(=O)[C@H](Cc1c[nH]c2ccccc12)NC(=O)[C@H](Cc1c[nH]c2ccccc12)NC(=O)[C@H](CCCN=C(N)N)NC(=O)[C@@H](N)Cc1c[nH]c2ccccc12 [WRWWR]
MIC [43]: ≥ 78.7 µM
MIC [44]: 22.5 µM (≈ 20 µg/mL)
MIC [45]: 16.9 µM (≈ 15 µg/mL)
MIC [46]: 19.7 µM (≈ 17.5 µg/mL)
MIC [47]: ≥ 45 µM
MIC [48]: ≥ 56.2 µM
